Measured values taken from ChEMBL document CHEMBL5247625, “Discovery and characterization of novel potent BCR-ABL degraders by conjugating allosteric inhibitor” (Eur J Med Chem, 2022).
Calls of active or inactive are those of the source. The calls are words filed in the database; no cut-off is given here.

Experiments:
[1] = target: T1, Protein cereblon/Tyrosine-protein kinase ABL1/Breakpoint cluster region protein (Homo sapiens, UniProt P00519+P11274+Q96SW2); experiment: Protac activity at CRBN/BCR-ABL in human K562 cells assessed as increase in BCR-ABL degradation at 50 nM by Western blotting analysis; format: cell-based
T1 sequence (P00519 whole entry, looked up): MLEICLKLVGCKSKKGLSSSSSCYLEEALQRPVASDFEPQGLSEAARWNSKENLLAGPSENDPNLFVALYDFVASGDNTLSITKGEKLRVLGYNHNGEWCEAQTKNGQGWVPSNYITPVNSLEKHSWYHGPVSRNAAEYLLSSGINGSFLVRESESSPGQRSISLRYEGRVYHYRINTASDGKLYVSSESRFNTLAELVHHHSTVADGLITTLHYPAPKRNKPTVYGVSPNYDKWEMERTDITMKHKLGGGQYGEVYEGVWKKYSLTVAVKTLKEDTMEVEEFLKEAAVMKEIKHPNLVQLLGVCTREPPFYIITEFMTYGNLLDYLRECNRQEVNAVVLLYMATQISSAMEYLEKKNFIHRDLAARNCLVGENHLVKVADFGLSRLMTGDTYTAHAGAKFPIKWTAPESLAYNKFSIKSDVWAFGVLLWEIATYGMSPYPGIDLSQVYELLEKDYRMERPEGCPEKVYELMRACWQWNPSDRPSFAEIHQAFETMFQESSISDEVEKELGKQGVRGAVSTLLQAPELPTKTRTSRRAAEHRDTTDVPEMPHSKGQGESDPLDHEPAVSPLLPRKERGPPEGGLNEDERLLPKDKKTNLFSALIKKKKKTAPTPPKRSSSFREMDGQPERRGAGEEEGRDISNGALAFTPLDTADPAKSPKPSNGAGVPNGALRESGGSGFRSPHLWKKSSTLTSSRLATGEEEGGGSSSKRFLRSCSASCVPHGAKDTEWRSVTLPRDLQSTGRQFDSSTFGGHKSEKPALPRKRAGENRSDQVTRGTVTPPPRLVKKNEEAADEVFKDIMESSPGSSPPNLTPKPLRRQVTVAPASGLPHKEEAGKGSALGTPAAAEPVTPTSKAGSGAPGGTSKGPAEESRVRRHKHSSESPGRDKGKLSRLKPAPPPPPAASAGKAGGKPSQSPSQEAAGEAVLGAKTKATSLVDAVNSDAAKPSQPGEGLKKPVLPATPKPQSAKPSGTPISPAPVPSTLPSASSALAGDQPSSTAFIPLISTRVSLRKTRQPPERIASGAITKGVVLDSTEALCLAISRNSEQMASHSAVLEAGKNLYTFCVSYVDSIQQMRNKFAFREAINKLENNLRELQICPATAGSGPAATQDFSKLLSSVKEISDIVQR
T1 sequence (P11274 whole entry, looked up): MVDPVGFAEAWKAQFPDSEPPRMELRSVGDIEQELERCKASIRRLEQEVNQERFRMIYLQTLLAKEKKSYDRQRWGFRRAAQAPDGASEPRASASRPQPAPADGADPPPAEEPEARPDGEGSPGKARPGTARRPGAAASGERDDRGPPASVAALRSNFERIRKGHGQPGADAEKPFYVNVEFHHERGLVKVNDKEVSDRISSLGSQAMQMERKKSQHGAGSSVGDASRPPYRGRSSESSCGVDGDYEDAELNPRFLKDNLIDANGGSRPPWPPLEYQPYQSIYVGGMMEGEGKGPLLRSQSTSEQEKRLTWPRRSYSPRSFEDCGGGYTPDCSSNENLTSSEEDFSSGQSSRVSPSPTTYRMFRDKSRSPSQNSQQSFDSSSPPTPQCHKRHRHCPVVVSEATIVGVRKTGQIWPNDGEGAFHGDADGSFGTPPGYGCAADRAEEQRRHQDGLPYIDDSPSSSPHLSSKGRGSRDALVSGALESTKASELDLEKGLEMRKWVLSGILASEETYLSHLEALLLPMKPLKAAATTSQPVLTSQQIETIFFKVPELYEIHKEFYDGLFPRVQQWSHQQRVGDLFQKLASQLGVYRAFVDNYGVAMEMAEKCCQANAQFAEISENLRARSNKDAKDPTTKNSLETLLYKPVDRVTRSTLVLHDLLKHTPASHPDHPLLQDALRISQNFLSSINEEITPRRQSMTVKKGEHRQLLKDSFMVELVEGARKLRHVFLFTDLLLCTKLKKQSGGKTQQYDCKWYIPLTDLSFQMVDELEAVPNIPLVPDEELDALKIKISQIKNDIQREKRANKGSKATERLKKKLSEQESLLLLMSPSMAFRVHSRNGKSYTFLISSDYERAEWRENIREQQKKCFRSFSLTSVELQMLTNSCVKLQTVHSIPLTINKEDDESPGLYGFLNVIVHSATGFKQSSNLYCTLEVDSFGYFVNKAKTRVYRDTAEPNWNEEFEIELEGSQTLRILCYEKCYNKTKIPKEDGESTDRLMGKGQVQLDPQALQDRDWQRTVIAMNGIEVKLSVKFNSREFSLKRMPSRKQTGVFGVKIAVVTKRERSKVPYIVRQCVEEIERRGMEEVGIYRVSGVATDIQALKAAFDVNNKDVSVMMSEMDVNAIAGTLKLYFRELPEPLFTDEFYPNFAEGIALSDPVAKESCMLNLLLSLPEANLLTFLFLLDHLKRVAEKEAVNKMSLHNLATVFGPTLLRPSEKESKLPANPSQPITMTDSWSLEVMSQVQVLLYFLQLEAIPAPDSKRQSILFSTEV
T1 sequence (Q96SW2 whole entry, looked up): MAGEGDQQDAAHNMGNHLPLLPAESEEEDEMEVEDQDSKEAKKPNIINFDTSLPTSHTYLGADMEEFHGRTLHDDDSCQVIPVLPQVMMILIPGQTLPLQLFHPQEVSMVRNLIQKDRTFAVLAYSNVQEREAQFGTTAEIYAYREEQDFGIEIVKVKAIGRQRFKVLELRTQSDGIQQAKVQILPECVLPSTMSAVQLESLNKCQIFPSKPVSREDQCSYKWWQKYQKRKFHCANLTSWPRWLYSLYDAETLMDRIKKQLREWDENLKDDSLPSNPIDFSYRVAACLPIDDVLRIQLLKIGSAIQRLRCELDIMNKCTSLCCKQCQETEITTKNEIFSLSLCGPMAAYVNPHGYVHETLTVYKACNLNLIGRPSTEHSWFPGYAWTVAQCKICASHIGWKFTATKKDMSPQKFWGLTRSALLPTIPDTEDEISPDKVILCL

K562 = experiment: cells; conditions: Homo sapiens, K562, 48 h
Description: Antiproliferative activity against human K562 cells assessed as inhibition of cell growth incubated for 2 days by CCK8 assay

[2] = target: T1, Protein cereblon/Tyrosine-protein kinase ABL1/Breakpoint cluster region protein; experiment: Protac activity at CRBN/BCR-ABL in human K562 cells assessed as increase in BCR-ABL degradation at 100 nM incubated for 6 hrs followed by compound washout measured upto 96 hrs by Western blotting analysis; format: cell-based
[3] = target: T2, Signal transducer and activator of transcription 5A (Homo sapiens) (UniProt P42229); experiment: Inhibition of STAT5 phosphorylation at Tyr694 residue in human K562 cells at 0.3 to 100 nM incubated for 16 hrs by Western blotting analysis; format: cell-based; conditions: dose 0.3-100 nM
T2 sequence (whole entry): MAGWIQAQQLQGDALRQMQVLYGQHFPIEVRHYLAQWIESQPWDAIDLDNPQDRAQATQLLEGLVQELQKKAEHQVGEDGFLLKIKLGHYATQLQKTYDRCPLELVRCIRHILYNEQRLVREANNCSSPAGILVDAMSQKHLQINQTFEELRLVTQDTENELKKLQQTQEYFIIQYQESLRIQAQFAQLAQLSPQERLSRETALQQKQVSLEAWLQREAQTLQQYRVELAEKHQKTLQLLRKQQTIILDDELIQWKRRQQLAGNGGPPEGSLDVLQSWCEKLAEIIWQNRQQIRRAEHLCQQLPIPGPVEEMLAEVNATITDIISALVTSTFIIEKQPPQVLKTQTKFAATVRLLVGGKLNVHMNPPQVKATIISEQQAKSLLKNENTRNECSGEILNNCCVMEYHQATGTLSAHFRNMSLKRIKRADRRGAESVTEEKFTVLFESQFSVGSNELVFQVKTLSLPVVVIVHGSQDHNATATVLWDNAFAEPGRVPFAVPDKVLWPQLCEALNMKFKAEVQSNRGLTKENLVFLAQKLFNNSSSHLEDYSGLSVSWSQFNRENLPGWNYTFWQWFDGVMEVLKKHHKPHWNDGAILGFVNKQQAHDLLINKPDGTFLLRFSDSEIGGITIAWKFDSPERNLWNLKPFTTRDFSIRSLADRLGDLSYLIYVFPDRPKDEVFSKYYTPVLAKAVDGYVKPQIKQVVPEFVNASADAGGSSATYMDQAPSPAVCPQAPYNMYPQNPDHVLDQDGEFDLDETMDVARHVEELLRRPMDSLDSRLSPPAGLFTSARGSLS

[4] = target: T3, Bcr/Abl fusion protein (Homo sapiens) (UniProt P00519+P11274); experiment: Inhibition of BCR-ABL phosphorylation at Tyr245 residue in human K562 cells at 100 nM incubated for 6 hrs followed by compound washout measured upto 96 hrs by Western blotting analysis; format: cell-based
T3 sequence (P00519 whole entry, looked up, the tested form may be a part): as the sequence (P00519 whole entry, looked up) above
T3 sequence (P11274 whole entry, looked up, the tested form may be a part): as the sequence (P11274 whole entry, looked up) above

[5] = target: Crk-like protein (Homo sapiens) (UniProt P46109); experiment: Inhibition of CRKL phosphorylation at Tyr207 residue in human K562 cells at 0.3 to 100 nM incubated for 16 hrs by Western blotting analysis; format: cell-based; conditions: dose 0.3-100 nM
Crk-like protein (Homo sapiens), sequence (P46109 whole entry, the tested form may be a part): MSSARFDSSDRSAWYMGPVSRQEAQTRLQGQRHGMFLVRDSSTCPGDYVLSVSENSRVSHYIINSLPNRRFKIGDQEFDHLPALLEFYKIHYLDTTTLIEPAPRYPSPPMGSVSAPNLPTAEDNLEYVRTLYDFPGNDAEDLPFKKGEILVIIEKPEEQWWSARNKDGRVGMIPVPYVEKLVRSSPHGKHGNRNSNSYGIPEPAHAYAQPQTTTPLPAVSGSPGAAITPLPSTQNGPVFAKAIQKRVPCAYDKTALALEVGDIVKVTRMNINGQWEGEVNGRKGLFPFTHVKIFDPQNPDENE

[6] = target: T3, Bcr/Abl fusion protein (Homo sapiens); experiment: Inhibition of BCR-ABL phosphorylation at Tyr245 residue in human K562 cells at 0.3 to 100 nM incubated for 16 hrs by Western blotting analysis; format: cell-based; conditions: dose 0.3-100 nM
[7] = target: T2, Signal transducer and activator of transcription 5A (Homo sapiens); experiment: Inhibition of STAT5 phosphorylation at Tyr694 residue in human K562 cells at 100 nM incubated for 6 hrs followed by compound washout measured upto 96 hrs by Western blotting analysis; format: cell-based
[8] = target: Crk-like protein (Homo sapiens) (UniProt P46109); experiment: Inhibition of CRKL phosphorylation at Tyr207 residue in human K562 cells at 100 nM incubated for 6 hrs followed by compound washout measured upto 96 hrs by Western blotting analysis; format: cell-based
[9] = target: T1, Protein cereblon/Tyrosine-protein kinase ABL1/Breakpoint cluster region protein; experiment: Protac activity at CRBN/BCR-ABL in human K562 cells assessed as increase in BCR-ABL degradation at 100 nM by Western blotting analysis; format: cell-based
[10] = target: T1, Protein cereblon/Tyrosine-protein kinase ABL1/Breakpoint cluster region protein; experiment: Protac activity at CRBN/BCR-ABL in human K562 cells assessed as increase in BCR-ABL degradation at 5 nM by Western blotting analysis; format: cell-based

Compound	Activity [1]	IC50 (K562)	Activity [9]	Activity [10]	other results
CN1C(=O)CCC(N2Cc3c(SCCCCCCN4CCN(C5CCN(c6ncc(C(=O)Nc7ccc(OC(F)(F)Cl)cc7)cc6-c6ccn[nH]6)CC5)CC4)cccc3C2=O)C1=O (stereo unspecified)					Activity [2]: inactive; Activity [3]: Active; inhibition [4]: inactive; Activity [5]: Active; Activity [6]: Active; inhibition [7]: inactive; inhibition [8]: inactive
O=C1CCC(N2Cc3c(SCCCN4CCN(C5CCN(c6ncc(C(=O)Nc7ccc(OC(F)(F)Cl)cc7)cc6-c6ccn[nH]6)CC5)CC4)cccc3C2=O)C(=O)N1 (stereo unspecified)		48.5 nM	49.6%	55.5%	
O=C1CCC(N2Cc3c(SCCCCCCNc4ncc(C(=O)Nc5ccc(OC(F)(F)Cl)cc5)cc4-c4ccn[nH]4)cccc3C2=O)C(=O)N1 (stereo unspecified)		1960 nM	-8.74%	-5.46%	
O=C1CCC(N2Cc3c(SCCCCNC4CCN(c5ncc(C(=O)Nc6ccc(OC(F)(F)Cl)cc6)cc5-c5ccn[nH]5)CC4)cccc3C2=O)C(=O)N1 (stereo unspecified)		322 nM	41.6%	5.76%	
O=C1CCC(N2Cc3c(C#CCCCCCCN4CCN(C5CCN(c6ncc(C(=O)Nc7ccc(OC(F)(F)Cl)cc7)cc6-c6ccn[nH]6)CC5)CC4)cccc3C2=O)C(=O)N1 (stereo unspecified)		124 nM	29.9%	38.4%	
Nc1cccc2c1CN(C1CCC(=O)NC1=O)C2=O (stereo unspecified) [LENALIDOMIDE]		> 10000 nM			
O=C1CCC(N2Cc3c(SCCCCNc4ncc(C(=O)Nc5ccc(OC(F)(F)Cl)cc5)cc4-c4ccn[nH]4)cccc3C2=O)C(=O)N1 (stereo unspecified)		928 nM	-9.23%	-3.56%	
O=C1CCC(N2Cc3c(SCCCCCNC4CCN(c5ncc(C(=O)Nc6ccc(OC(F)(F)Cl)cc6)cc5-c5ccn[nH]5)CC4)cccc3C2=O)C(=O)N1 (stereo unspecified)		978 nM	29.7%	-3.96%	
O=C1CCC(N2Cc3c(OCCCCCCN4CCN(C5CCN(c6ncc(C(=O)Nc7ccc(OC(F)(F)Cl)cc7)cc6-c6ccn[nH]6)CC5)CC4)cccc3C2=O)C(=O)N1 (stereo unspecified)		66 nM	67.9%	28.8%	
O=C1CCC(N2Cc3c(SCCCCN4CCN(C5CCN(c6ncc(C(=O)Nc7ccc(OC(F)(F)Cl)cc7)cc6-c6ccn[nH]6)CC5)CC4)cccc3C2=O)C(=O)N1 (stereo unspecified)		34.7 nM	86.1%	38.9%	
O=C1CCC(N2Cc3c(SCCCCN4CCN(c5ncc(C(=O)Nc6ccc(OC(F)(F)Cl)cc6)cc5-c5ccn[nH]5)CC4)cccc3C2=O)C(=O)N1 (stereo unspecified)		30.3 nM	87.8%	40.8%	
Nc1cccc2c1C(=O)N(C1CCC(=O)NC1=O)C2=O (stereo unspecified) [POMALIDOMIDE]		> 10000 nM			
O=C1CCC(N2Cc3c(SCCCCCNc4ncc(C(=O)Nc5ccc(OC(F)(F)Cl)cc5)cc4-c4ccn[nH]4)cccc3C2=O)C(=O)N1 (stereo unspecified)		558 nM	29.6%	6.85%	
O=C1CCC(N2Cc3c(SCCCCCCCN4CCN(C5CCN(c6ncc(C(=O)Nc7ccc(OC(F)(F)Cl)cc7)cc6-c6ccn[nH]6)CC5)CC4)cccc3C2=O)C(=O)N1 (stereo unspecified)		47 nM	64.4%	21.9%	
O=C1CCC(N2Cc3c(SCCCCCN4CCN(C5CCN(c6ncc(C(=O)Nc7ccc(OC(F)(F)Cl)cc7)cc6-c6ccn[nH]6)CC5)CC4)cccc3C2=O)C(=O)N1 (stereo unspecified)		23.1 nM	37.1%	24.3%	
O=C1CCC(N2Cc3c(SCCCCCCNC4CCN(c5ncc(C(=O)Nc6ccc(OC(F)(F)Cl)cc6)cc5-c5ccn[nH]5)CC4)cccc3C2=O)C(=O)N1 (stereo unspecified)		228 nM	70.9%	29.4%	
O=C1CCC(N2Cc3c(SCCCCCCN4CCN(c5ncc(C(=O)Nc6ccc(OC(F)(F)Cl)cc6)cc5-c5ccn[nH]5)CC4)cccc3C2=O)C(=O)N1 (stereo unspecified)		292 nM	40.8%	24.6%	

Further lines, with some results ahead:

Activity [1]	IC50 (K562)	Activity [9]	Activity [10]	Compound	other results
9.05%	130 nM			O=C1CCC(N2C(=O)c3cccc(NCCCC(=O)N4CCN(c5ncc(C(=O)Nc6ccc(OC(F)(F)Cl)cc6)cc5-c5ccn[nH]5)CC4)c3C2=O)C(=O)N1 (stereo unspecified)	
4.94%	886 nM			O=C1CCC(N2C(=O)c3cccc(NCCOCCOCCOCCOCCC(=O)N4CCN(c5ncc(C(=O)Nc6ccc(OC(F)(F)Cl)cc6)cc5-c5ccn[nH]5)CC4)c3C2=O)C(=O)N1 (stereo unspecified)	
9.57%	528 nM			O=C1CCC(N2C(=O)c3cccc(SCCCC(=O)N4CCN(c5ncc(C(=O)Nc6ccc(OC(F)(F)Cl)cc6)cc5-c5ccn[nH]5)CC4)c3C2=O)C(=O)N1 (stereo unspecified)	
	40.9 nM	89.1%	32.8%	O=C1CCC(N2Cc3c(C#CCCCCN4CCN(c5ncc(C(=O)Nc6ccc(OC(F)(F)Cl)cc6)cc5-c5ccn[nH]5)CC4)cccc3C2=O)C(=O)N1 (stereo unspecified)	
-2.33%	666 nM			O=C1CCC(N2Cc3c(NCCCC(=O)N4CCN(c5ncc(C(=O)Nc6ccc(OC(F)(F)Cl)cc6)cc5-c5ccn[nH]5)CC4)cccc3C2=O)C(=O)N1 (stereo unspecified)	
35.1%	106 nM			O=C1CCC(N2Cc3c(SCCCC(=O)N4CCN(c5ncc(C(=O)Nc6ccc(OC(F)(F)Cl)cc6)cc5-c5ccn[nH]5)CC4)cccc3C2=O)C(=O)N1 (stereo unspecified)	
1%	380 nM			O=C1CCC(N2C(=O)c3cccc(NCCCCCCC(=O)N4CCN(c5ncc(C(=O)Nc6ccc(OC(F)(F)Cl)cc6)cc5-c5ccn[nH]5)CC4)c3C2=O)C(=O)N1 (stereo unspecified)	
-1.5%	1100 nM			O=C1CCC(N2C(=O)c3cccc(NCCOCCOCCC(=O)N4CCN(c5ncc(C(=O)Nc6ccc(OC(F)(F)Cl)cc6)cc5-c5ccn[nH]5)CC4)c3C2=O)C(=O)N1 (stereo unspecified)	
	170 nM	70.9%	38.2%	O=C1CCC(N2C(=O)c3cccc(SCCCCN4CCN(C5CCN(c6ncc(C(=O)Nc7ccc(OC(F)(F)Cl)cc7)cc6-c6ccn[nH]6)CC5)CC4)c3C2=O)C(=O)N1 (stereo unspecified)	
-1.35%	1120 nM			O=C1CCC(N2C(=O)c3cccc(OCCCC(=O)N4CCN(c5ncc(C(=O)Nc6ccc(OC(F)(F)Cl)cc6)cc5-c5ccn[nH]5)CC4)c3C2=O)C(=O)N1 (stereo unspecified)	
1.67%	186 nM			O=C1CCC(N2C(=O)c3cccc(NCCCCCC(=O)N4CCN(c5ncc(C(=O)Nc6ccc(OC(F)(F)Cl)cc6)cc5-c5ccn[nH]5)CC4)c3C2=O)C(=O)N1 (stereo unspecified)	
1.82%	572 nM			O=C1CCC(N2C(=O)c3cccc(NCC(=O)N4CCN(c5ncc(C(=O)Nc6ccc(OC(F)(F)Cl)cc6)cc5-c5ccn[nH]5)CC4)c3C2=O)C(=O)N1 (stereo unspecified)	
1.94%	172 nM			O=C1CCC(N2C(=O)c3cccc(NCCCCC(=O)N4CCN(c5ncc(C(=O)Nc6ccc(OC(F)(F)Cl)cc6)cc5-c5ccn[nH]5)CC4)c3C2=O)C(=O)N1 (stereo unspecified)	
	137 nM	40%	48.4%	O=C1CCC(N2Cc3c(SCCCN4CCN(c5ncc(C(=O)Nc6ccc(OC(F)(F)Cl)cc6)cc5-c5ccn[nH]5)CC4)cccc3C2=O)C(=O)N1 (stereo unspecified)	
-12.3%	2120 nM			O=C1CCC(N2Cc3c(OCCCC(=O)N4CCN(c5ncc(C(=O)Nc6ccc(OC(F)(F)Cl)cc6)cc5-c5ccn[nH]5)CC4)cccc3C2=O)C(=O)N1 (stereo unspecified)	
	67.2 nM	89.2%	30.6%	O=C1CCC(N2Cc3c(OCCCCN4CCN(c5ncc(C(=O)Nc6ccc(OC(F)(F)Cl)cc6)cc5-c5ccn[nH]5)CC4)cccc3C2=O)C(=O)N1 (stereo unspecified)	
9.65%	278 nM			O=C1CCC(N2C(=O)c3cccc(C#CCCCC(=O)N4CCN(c5ncc(C(=O)Nc6ccc(OC(F)(F)Cl)cc6)cc5-c5ccn[nH]5)CC4)c3C2=O)C(=O)N1 (stereo unspecified)	
10.2%	154 nM			O=C1CCC(N2Cc3c(SCCOCC(=O)N4CCN(c5ncc(C(=O)Nc6ccc(OC(F)(F)Cl)cc6)cc5-c5ccn[nH]5)CC4)cccc3C2=O)C(=O)N1 (stereo unspecified)	
